Results on one molecule are retold here after paper PMC6837341, “Evolutionarily conserved susceptibility of the mitochondrial respiratory chain to SDHI pesticides and its consequence on the impact of SDHIs on human cultured cells” (PLoS ONE, 2019).

The target in data set [1] is T1, quinol cytochrome c reductase (CIII) (Homo sapiens, UniProt P00156).
T1 construct: the pellets were permeabilized by two freeze-thaw cycles before enzyme assays; endogenous in cells; host or cells: HEK293, freeze-thawed cell pellets
As to the kind of experiment: Antimycin-sensitive quinol cytochrome c reductase (QCCR) activity, freeze-thawed HEK cells. It counts as biochemical. The procedure: (§1) The cells were grown in T75 flasks using 10 ml Dulbecco’s modified Eagle's minimal essential medium (DMEM) either containing 1 or 4.5 g/l glucose, 4 mM glutamine (glutamax; Gibco Thermo Fisher Scientific, MA), 2 mM pyruvate and 200 μM uridine (permissive medium, thereafter referred as GlucoMax) or lacking glucose, pyruvate and uridine but containing 4 mM glutamine (nonpermissive medium, thereafter referred as MitoMax; S1 Table). All media were supplemented with 10% fetal calf serum and 100 U/mL each penicillin and streptomycin. HEK293 human embryonic kidney cells were cultured in DMEM containing 4.5 g/L glucose, 4 mM glutamine, 10% fetal calf serum, 200 μM uridine, 2 mM pyruvate, and 100 U/mL each penicillin and streptomycin [9]. Cell pellets (1,500 g for 5 min) were kept frozen (-80°C), and for biochemical studies, the pellets were permeabilized by two freeze-thaw cycles before enzyme assays.
(§2) RC enzyme activities were spectrophotometrically measured using a pseudo-double-wavelength spectrophotometer (Cary 60, Agilent). Malonate-sensitive succinate quinone dichlorophenolindophenol (DCPIP) reductase (SQDR), as an indicator of the activity of the isolated SDH enzyme (isolated CII), and glycerol-3-phosphate quinone DCPIP reductase (GQDR), as a measure of the activity of the isolated glycerol-3-phosphate dehydrogenase (G3PDH), were assayed as previously described. To study the effect of SDHIs on the RC, we had to take into consideration the fact that these inhibitors act through binding to quinone-binding sites in the RC. Accordingly, we observed that the extent of the inhibitory effects of these substances varies with the addition of exogenous quinones (Fig 1). […] With this aim, we measured the malonate-sensitive succinate cytochrome c reductase (SDH+CIII), glycerol-3-phosphate cytochrome c reductase (G3PDH+CIII) and antimycin-sensitive quinol cytochrome c reductase (CIII) as previously described.
(§3) The effects of eight different SDHIs (up to 500 μM; S2 Fig) were determined on four different biological materials. Because IC50 are known to be affected by the actual absolute activity of the tested enzyme, these IC50 were quantified using similar levels of SDH enzyme activity during the assay. IC50 values were determined using the AAT Bioquest IC50 calculator tool (https://www.aatbio.com/tools/ic50-calculator).

The target of data set [2] is succinate cytochrome c reductase (SDH+CIII) (Homo sapiens, UniProt O14521+P21912+Q99643). As to the kind of experiment: Malonate-sensitive succinate cytochrome c reductase (SCCR) activity, freeze-thawed HEK cells. Details: the pellets were permeabilized by two freeze-thaw cycles before enzyme assays; endogenous in cells; host or cells: HEK293, freeze-thawed cell pellets. Conditions: IC50 SCCR, no exogenous quinone, n ≥ 3. The class given is biochemical. Here is the method: as §1, §2, §3

For data set [3] the following is noted: according to European regulations; ref European regulations; cited from earlier work.
The target in data set [4] is T2, glycerol-3-phosphate cytochrome c reductase (G3PDH+CIII) (Homo sapiens, UniProt P00156).
T2 construct: the pellets were permeabilized by two freeze-thaw cycles before enzyme assays; endogenous in cells; host or cells: HEK293, freeze-thawed cell pellets
Nature of the data set: Glycerol-3-phosphate cytochrome c reductase (GCCR) activity, freeze-thawed HEK cells. It counts as biochemical. The procedure:
as §1, §2, §3

Some results are limits rather than exact numbers.

Sequence of succinate cytochrome c reductase (SDH+CIII) (P21912 29-280): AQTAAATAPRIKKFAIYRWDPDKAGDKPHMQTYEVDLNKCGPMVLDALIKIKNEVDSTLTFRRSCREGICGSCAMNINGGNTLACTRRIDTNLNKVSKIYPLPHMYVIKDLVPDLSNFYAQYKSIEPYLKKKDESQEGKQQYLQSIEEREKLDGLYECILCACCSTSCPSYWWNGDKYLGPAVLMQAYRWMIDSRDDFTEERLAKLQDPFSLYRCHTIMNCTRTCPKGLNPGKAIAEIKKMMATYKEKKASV
Sequence of succinate cytochrome c reductase (SDH+CIII) (Q99643 30-169): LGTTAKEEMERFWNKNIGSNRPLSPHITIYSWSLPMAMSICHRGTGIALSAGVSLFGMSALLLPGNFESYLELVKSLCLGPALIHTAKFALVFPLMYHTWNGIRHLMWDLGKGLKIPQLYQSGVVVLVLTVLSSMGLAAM
Sequence of succinate cytochrome c reductase (SDH+CIII) (O14521 57-159): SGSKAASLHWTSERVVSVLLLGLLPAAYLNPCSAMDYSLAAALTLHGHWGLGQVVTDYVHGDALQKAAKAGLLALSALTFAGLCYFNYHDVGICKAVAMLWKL
Sequence of succinate cytochrome c reductase (SDH+CIII) (P31040 43-664 partner): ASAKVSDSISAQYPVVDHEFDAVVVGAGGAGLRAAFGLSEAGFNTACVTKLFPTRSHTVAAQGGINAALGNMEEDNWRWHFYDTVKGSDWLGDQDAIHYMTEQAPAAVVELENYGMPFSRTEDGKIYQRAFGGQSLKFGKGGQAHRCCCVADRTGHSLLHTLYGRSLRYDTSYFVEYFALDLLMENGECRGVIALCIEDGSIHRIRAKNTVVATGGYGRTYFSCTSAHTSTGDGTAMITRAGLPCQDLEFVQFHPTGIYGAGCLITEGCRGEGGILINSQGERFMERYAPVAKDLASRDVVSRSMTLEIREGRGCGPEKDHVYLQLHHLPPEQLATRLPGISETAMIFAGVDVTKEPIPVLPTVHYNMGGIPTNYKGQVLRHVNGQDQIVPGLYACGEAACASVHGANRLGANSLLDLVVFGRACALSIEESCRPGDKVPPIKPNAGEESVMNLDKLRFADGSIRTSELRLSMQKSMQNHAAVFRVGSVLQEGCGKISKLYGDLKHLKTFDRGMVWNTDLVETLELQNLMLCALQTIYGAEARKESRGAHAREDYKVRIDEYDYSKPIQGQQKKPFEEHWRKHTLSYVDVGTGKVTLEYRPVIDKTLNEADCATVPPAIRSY

As to `O=C(NCCc1ncc(C(F)(F)F)cc1Cl)c1ccccc1C(F)(F)F` [Fluopyram, fluopyram], the IC50 in data set [1] was more than 500 µM; in data set [2], 160 µM; in data set [4] it was more than 500 µM. For the same molecule, the “ADI (Acceptable Daily Intake)” value in data set [3] is 0.012 mg/kg/day.

By IC50 is commonly meant the concentration that gives 50% inhibition.
